Target: T1, HMG-CoA reductase (Rattus norvegicus, UniProt P51639)
T1 sequence (P51639 1-887): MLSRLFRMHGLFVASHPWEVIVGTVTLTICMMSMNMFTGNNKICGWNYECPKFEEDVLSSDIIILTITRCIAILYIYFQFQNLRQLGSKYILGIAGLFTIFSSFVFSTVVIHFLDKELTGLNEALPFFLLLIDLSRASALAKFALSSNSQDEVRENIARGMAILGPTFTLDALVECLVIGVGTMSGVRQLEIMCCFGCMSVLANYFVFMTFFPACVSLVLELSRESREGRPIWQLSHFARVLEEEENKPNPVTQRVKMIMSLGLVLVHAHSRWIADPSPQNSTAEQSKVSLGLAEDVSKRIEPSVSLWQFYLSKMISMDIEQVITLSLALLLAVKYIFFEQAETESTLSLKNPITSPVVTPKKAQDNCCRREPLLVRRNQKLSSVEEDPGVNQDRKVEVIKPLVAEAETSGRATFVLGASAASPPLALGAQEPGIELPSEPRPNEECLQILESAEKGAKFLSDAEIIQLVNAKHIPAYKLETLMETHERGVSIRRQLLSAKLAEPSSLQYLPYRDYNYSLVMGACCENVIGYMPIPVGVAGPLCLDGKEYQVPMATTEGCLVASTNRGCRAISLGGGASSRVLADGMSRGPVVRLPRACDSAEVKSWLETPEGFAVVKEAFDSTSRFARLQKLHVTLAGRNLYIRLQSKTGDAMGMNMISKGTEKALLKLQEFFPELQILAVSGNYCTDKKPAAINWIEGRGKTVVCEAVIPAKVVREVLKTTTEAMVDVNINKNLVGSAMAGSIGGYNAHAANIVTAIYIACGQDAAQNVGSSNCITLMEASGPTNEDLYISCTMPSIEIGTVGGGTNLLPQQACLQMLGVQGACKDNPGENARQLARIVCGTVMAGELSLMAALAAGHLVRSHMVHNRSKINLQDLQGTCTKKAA
Experiment: intrinsic HMG-CoA reductase inhibition, in vitro protocol of J. Med. Chem., 1985, 28, page 347
Format: biochemical
Settings: in vitro protocol described in J. Med. Chem., 1985, 28, page 347
Procedure: The intrinsic HMG-CoA reductase inhibition activity of the claimed compounds is measured in the in vitro protocol described is J. Med. Chem., 1985, 28, page 347.

CC[C@H](C)C(=O)O[C@H]1C[C@@H](C)CC2=CC(O)[C@H](C)C(CC[C@@H](O)C[C@@H](O)CC(=O)O)=C21 (stereo partly shown)
IC50: 547 nM
